Assay results taken from patent US5688774A (priority 1995, dated 1997).
Where two headings read alike, the source gives them in different places.

Columns and labels:
A3 receptor = details: coadministered with a xanthine antagonist that does not act at A3 receptors; cited from earlier work
A3 receptors [1] = target: T1, A3 receptors (Rattus norvegicus, UniProt P28647); details: in words; Zhou et al.; cited from earlier work
T1 sequence (P28647 1-320): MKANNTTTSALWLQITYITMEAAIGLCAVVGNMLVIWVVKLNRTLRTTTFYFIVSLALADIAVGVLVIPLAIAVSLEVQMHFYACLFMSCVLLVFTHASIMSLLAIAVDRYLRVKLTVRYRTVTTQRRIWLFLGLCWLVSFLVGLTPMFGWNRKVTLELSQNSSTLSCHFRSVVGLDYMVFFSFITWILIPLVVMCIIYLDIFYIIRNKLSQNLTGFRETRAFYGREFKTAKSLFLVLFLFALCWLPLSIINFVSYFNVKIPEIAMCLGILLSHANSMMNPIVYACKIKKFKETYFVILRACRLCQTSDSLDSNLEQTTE

A3 receptors [2] = target: T1, A3 receptors; assay: A3 receptor binding selectivity; details: in words
[3] = system: ischemic model in gerbils; details: cited from earlier work
[4] = system: NMDA-induced seizures in mice; details: cited from earlier work
rat brain A1 receptor = target: T2, rat brain A1 receptor (Rattus norvegicus, UniProt P25099); assay: Displacement of [^3 H]PIA binding at A1 receptors
T2 construct: Rat cerebral cortical and striatal membranes were prepared; from tissue; host or cells: rat brain membranes (cerebral cortical)
T2 sequence (P25099 1-326): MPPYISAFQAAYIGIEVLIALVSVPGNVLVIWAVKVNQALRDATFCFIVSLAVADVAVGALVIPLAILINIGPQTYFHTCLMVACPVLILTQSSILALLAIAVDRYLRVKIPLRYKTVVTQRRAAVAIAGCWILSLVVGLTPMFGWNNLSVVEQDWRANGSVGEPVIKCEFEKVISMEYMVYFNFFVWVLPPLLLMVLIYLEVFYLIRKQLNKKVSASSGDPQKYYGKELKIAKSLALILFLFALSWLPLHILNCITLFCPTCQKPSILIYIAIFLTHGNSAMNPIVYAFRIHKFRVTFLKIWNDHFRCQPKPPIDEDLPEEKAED

[5] = target: T3, rat A3 adenosine receptors (Rattus norvegicus, UniProt P28647); assay: Inhibition of adenylate cyclase in CHO cells stably transfected with rat A3 adenosine receptors; assay type: cell-based; set-up: key to Effect on IB-MECA dose-resp. curve: no effect; details: for Ratio Conc./Ki (A3): test concentration divided by Ki (A3)
T3 construct: expressed in transfected cells; host or cells: CHO cells, stably transfected
T3 sequence (P28647 1-320): T1 sequence (P28647 1-320)

rat brain A2a receptor = target: T4, rat brain A2a receptor (Rattus norvegicus, UniProt P30543); assay: Displacement of [^3 H]CGS 21680 binding at A2a receptors
T4 construct: A2 receptors from rat striatal membranes; from tissue; host or cells: rat striatal membranes
Description: Rat cerebral cortical and striatal membranes were prepared (Jacobson et al., J. Med. Chem., 35, 4143-4149 (1992)) and treated with ADA for 30 min at 37° C. prior to storage at -70° C.
The stock solutions were diluted with DMSO to a concentration of ≤0.1 mM prior to addition to the aqueous medium. The final concentration of DMSO in the assay medium was generally 2%.
At least six different concentrations spanning three orders of magnitude, adjusted appropriately for the IC50 of each compound, were used. […]. Pharmacol., 22, 3099-3108 (1973)).

[6] = [^3 H]PIA, rat brain membranes, Ki ± S.E.M., n = 3-6
[7] = CHO, 1 μM forskolin, average ± S.E.M. for 2-3 determinations or a single value, read-out: % Inhib. (adenylate cyclase)
[8] = [^3 H]CGS 21680, rat brain membranes, Ki ± S.E.M., n = 3-6

T4 sequence (P30543 whole entry): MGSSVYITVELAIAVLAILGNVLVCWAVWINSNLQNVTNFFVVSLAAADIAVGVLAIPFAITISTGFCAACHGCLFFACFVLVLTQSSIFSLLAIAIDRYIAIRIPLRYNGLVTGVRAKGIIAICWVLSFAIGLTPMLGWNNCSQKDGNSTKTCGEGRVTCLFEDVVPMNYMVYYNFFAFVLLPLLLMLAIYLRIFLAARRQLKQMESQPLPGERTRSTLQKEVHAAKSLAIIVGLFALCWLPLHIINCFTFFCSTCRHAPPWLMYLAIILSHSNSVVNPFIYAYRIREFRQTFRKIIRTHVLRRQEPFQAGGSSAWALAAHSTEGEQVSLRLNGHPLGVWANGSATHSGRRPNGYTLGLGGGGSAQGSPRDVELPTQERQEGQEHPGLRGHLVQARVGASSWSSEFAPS

| Compound | Ki (rat brain A1 receptor; [6]) | inhibition at 100 µM [5, 7] | Ratio Conc./Ki (A3) [5] | Ki (rat brain A2a receptor; [8]) | other results |
| --- | --- | --- | --- | --- | --- |
| Nc1ccc(CCNc2ncnc3c2ncn3[C@@H]2O[C@H](CO)[C@@H](O)[C@H]2O)cc1 [APNEA, N^6-2-(4-aminophenyl)ethyladenosine] |  |  |  |  | cardioprotective potential of A3 receptor activation (A3 receptor): has been demonstrated; activity at the A3 receptor (A3 receptors [1]): agonists for the A3 receptor |
| CCNC(=O)[C@H]1O[C@@H](n2cnc3c(N)nc(NCCc4ccc(CCC(=O)NCCN)cc4)nc32)[C@H](O)[C@@H]1O [APEC] |  |  |  |  | tolerance of 2-substitution at A3 receptors (A3 receptors [2]): well-tolerated |
| CNC(=O)[C@H]1O[C@@H](n2cnc3c(NCc4cccc(I)c4)ncnc32)[C@H](O)[C@@H]1O [IB-MECA, N^6-(3-iodobenzyl)adenosine-5'-N-methyluronamide] |  |  |  |  | cerebroprotective effects, ischemic model [3]: cerebroprotective effects; cerebroprotective effects, NMDA-induced seizures [4]: cerebroprotective effects |
| CC(C)[Si]1(C(C)C)OC[C@H]2O[C@@H](n3cnc4c(NCc5cccc(I)c5)nc(Cl)nc43)[C@H](O)[C@@H]2O[Si](C(C)C)(C(C)C)O1 [Compound 45, 2-Chloro-9-(3,5-1,1,3,3-Tetraisopropyldisiloxyl-β-D-5-Ribofuranosyl)-N^6-(3-Iodobenzyl)adenine] | 66300 ± 19800 nM | 8.7% | 7.6 |  | % Inhibition (A2a) (rat brain A2a receptor; at 10^-4, [^3 H]CGS 21680, rat brain): 18 ± 2% |
| CNC(=O)[C@@H]1CC[C@H](n2cnc3c(NCc4ccccc4)nc(Cl)nc32)O1 [Compound 40, 2-Chloro-9-(2,3-Dideoxy-β-D-5-Methyl-Ribofuronamido)-N^6 -Benzyladenine] | 11500 ± 1300 nM |  | 1.3 | 220000 ± 65000 nM | Effect on IB-MECA dose-resp. curve ([5]; 1 μM forskolin): c; inhibition at 40 µM ([5]; CHO, 40 μM, 1 μM forskolin, average ± S.E.M. for 2-3 determinations or a single value, read-out: % Inhib. (adenylate cyclase)): 18.1 ± 8.7% |
| O[C@@H]1[C@H](O)CO[C@H]1n1cnc2c(NCc3cccc(I)c3)nc(Cl)nc21 [Compound 28, 2-Chloro-9-(b-D-erythrofuranoside)-N^6-(3-iodobenzyl)adenine] |  | 42.2% | 360 |  | Ki (rat brain A1 receptor): 811 ± 123 nM; Ki (rat brain A2a receptor): 2890 ± 1000 nM |
| CNC(=O)[C@@H]1C[C@@H](OC(C)=O)[C@H](n2cnc3c(NCc4cccc(I)c4)nc(Cl)nc32)O1 [Compound 37, 9-(2-Acetyl-3-Deoxy-β-D-5-Methyl-Ribofuronamido)-2-Chloro -N^6-(3-Iodobenzyl)adenine] | 778 ± 44 nM |  | 320 | 15900 ± 3700 nM | inhibition at 20 µM ([5]; CHO, 20 μM, 1 μM forskolin, average ± S.E.M. for 2-3 determinations or a single value, read-out: % Inhib. (adenylate cyclase)): 12.7 ± 1% |
| CSc1nc(NCc2cccc(I)c2)c2ncn(C)c2n1 [Compound 16, N^6-(3-Iodobenzyl)-9-Methyl-2-Methylthioadenine] | 1890 ± 590 nM | 19.5% | 330 | 1640 ± 390 nM | Effect on IB-MECA dose-resp. curve ([5]; 1 μM forskolin): c |
| CNC(=O)[C@H]1O[C@@H](n2cnc3c(NCc4cccc(I)c4)nc(Cl)nc32)[C@@H]2OC(=S)O[C@@H]21 [Compound 46, 2-Chloro-9-(2',3'-O-Thiocarbonyl-β-D-5-Methyl-Ribofuronamido)-N^6-(3-Iodobenzyl)adenine] | 179 ± 24 nM | 54.5 ± 8.1% | 8200 | 871 ± 219 nM |  |
| OC[C@H]1O[C@@H](n2cnc3c(NCc4cccc(I)c4)nc(Cl)nc32)[C@H](O)[C@@H]1O [2-chloro-N^6-(3-iodobenzyl)-adenosine] |  |  |  |  | tolerance of 2-substitution at A3 receptors (A3 receptors [2]): well-tolerated |
| CCNC(=O)[C@H]1O[C@@H](n2cnc3c(NCc4ccccc4)ncnc32)[C@H](O)[C@@H]1O [N^6-benzyladenosine-5'-N-ethyluronamide, reference compound] |  |  |  |  | agonist efficacy in inhibition of adenylate cyclase ([5]; in words, via rat A3 receptors): full agonists; selectivity for rat A3 receptors vs. either A1 or A2a receptors in binding assays (A3 receptors [2]): only one order of magnitude selective |
